Data: paper PMC8568133, “Evaluation of bisphenylthiazoles as a promising class for combating multidrug-resistant fungal infections” (PLoS ONE, 2021)
Values after ≈ are worked out from the molar mass of the structure shown. Where two headings read alike, the source gives them in different places.

Experiments:
Candida auris = test: Checkerboard assay of compound 17 with standard antifungals; format: cell-based; details: for FICI (fractional inhibitory concentration index) / Interpretation of interaction: antifungal combined with compound 17; for MIC Combined, Antifungal: antifungal in combination with compound 17; for MIC: Candidozyma auris, checkerboard, agent alone
Protocol: To evaluate the interactions between bisphenylthiazoles and the standard antifungal agents (fluconazole, amphotericin B, 5-fluorocytosine and caspofungin) against 2 C. auris clinical isolates, a standard checkerboard assay was utilized as described in previous studies. The fractional inhibitory concentration index (FICI) was calculated for each interaction. Interactions where the FICI was ≤0.5 were categorized as synergistic (SYN). FICI values of >0.5–1.25 were categorized as additive (ADD). FICI values of >1.25–4 were categorized as indifferent, and FICI values of > 4 were categorized as antagonistic. The experiment was repeated three independent times.

Candida krusei = test: Antifungal broth microdilution MIC (50% growth inhibition) and MFC; format: cell-based; details: Pichia kudriavzevii, read-out: MIC
Protocol: (§1) Serial dilutions (from 128 μg/mL to 0.06 μg/mL) of the tested compounds and control drugs (fluconazole, itraconazole and amphotericin) (in triplicates), were screened against clinical isolates of Candida albicans, Candida auris, Candida glabrata, Candida parapsilosis, Candida tropicalis, Candida krusei, Cryptococcus neoformans, Cryptococcus gattii and Aspergillus fumigatus species using the broth microdilution method according to the Clinical and Laboratory Standards Institute guidelines. MICs were determined as the lowest concentration of the compounds that inhibited the fungal growth by 50% after incubation at 35 °C for 24 h (for Candida and Aspergillus), or 48 h (for Cryptococcus). The minimum fungicidal concentration (MFC) of these compounds was tested by plating 4 μL from wells with no growth onto YPD agar plates. The plates were incubated at 37 °C for 24 hours before recording the MFC, which was categorized as the lowest concentration that reduced fungal growth by 99.9% [45]. The experiment was repeated three independent times.

Candida albicans = test: as above; format: cell-based
Protocol: as §1

Candida glabrata = test: as above; format: cell-based; details: Nakaseomyces glabratus
Protocol: as §1

Candida tropicalis = test: as above; format: cell-based; details: Candida tropicalis, ATCC1369
Protocol: as §1

Candida parapsilosis = test: Antifungal broth microdilution MIC (50% growth inhibition); format: cell-based; details: Lodderomyces parapsilosis, read-out: MIC
Protocol: as §1

[1] = tested on: E. coli JW55031 (tolC-mutant); test: microbe, parasite or virus in culture; format: cell-based, Escherichia coli
Protocol: (§2) The minimum inhibitory concentrations (MICs) of the tested compounds and control drugs against clinically-relevant bacterial strains were determined using the broth microdilution method, according to guidelines outlined by the Clinical and Laboratory Standards Institute (CLSI), or as described previously.
(§3) Initial screening of the bisphenylthiazoles against Gram-positive and Gram-negative bacteria. Bacterial strains, (except C. difficile that was grown anaerobically on brain heart infusion supplemented agar at 37° C for 48 hours), were grown aerobically overnight on tryptone soy agar plates at 37° C. Afterwards, a bacterial solution equivalent to 0.5 McFarland standard was prepared and diluted in cation-adjusted Mueller-Hinton broth (CAMHB) (for S. aureus, and E. coli) to achieve a bacterial concentration of about 5 × 10^5 CFU/mL. C. difficile was diluted in brain heart infusion supplemented broth, supplemented with yeast extract, hemin and vitamin K to achieve a bacterial concentration of about 5 × 10^5 CFU/mL. Compounds and control drugs were added in the first row of the 96 -well plates, and serially diluted with the corresponding media containing bacteria. Plates were then, incubated aerobi cally at 37° C for 18-20 hours (for S. aureus and E. coli). C. difficile was incubated anaerobically at 37° C for 48 hours. […]
(§4) the visual growth of bacteria.

[2] = tested on: E. coli BW25113 (wild-type); test: Broth microdilution MIC, initial antibacterial screening; format: cell-based, Escherichia coli
Protocol: as §2, §3, §4

MRSA USA300 = test: as above; format: cell-based, S. aureus
Protocol: as §2, §3, §4

[3] = tested on: C. difficile ATCC BAA1870; test: Broth microdilution MIC, initial antibacterial screening (anaerobic); format: cell-based, Clostridioides difficile
Protocol: as §2, §3, §4

Aspergillus fumigatus = test: Antifungal broth microdilution MIC (50% growth inhibition); format: cell-based; details: Aspergillus fumigatus, read-out: MIC
Protocol: as §1

[4] = Candida auris 381 (azole-sensitive)
[5] = Candida auris 385 (azole-resistant)
[6] = Escherichia coli, read-out: MIC
[7] = Candida albicans, C. albicans SS5314 (wild-type), read-out: MIC
[8] = Staphylococcus aureus, MRSA USA300, read-out: MIC
[9] = Clostridioides difficile, ATCCBAA1870, read-out: MIC

Structure (SMILES)	MIC ([1]; E. coli JW55031 (tolC-mutant)) [µg/mL]	MIC [2] [µg/mL]	MIC (Candida albicans; C. albicans SS5314 (wild-type)) [µg/mL]	MIC (MRSA USA300; MRSA USA300) [µg/mL]	MIC [3] [µg/mL]	MIC ([1]; Escherichia coli) [µg/mL]	MIC [2, 6] [µg/mL]	MIC (MRSA USA300; [8]) [µg/mL]	MIC [3, 9] [µg/mL]	also measured
Nc1nc(=O)[nH]cc1F [5-Fluorocytosine]										FICI (fractional inhibitory concentration index) (Candida auris; [4]): 1.250; Interpretation of interaction (Candida auris; [4]): ADD (FICI values of >0.5–1.25 were categorized as additive (ADD)); MIC Combined, Antifungal (Candida auris; [4]): 0.125 µg/mL; FICI (fractional inhibitory concentration index) (Candida auris; [5]): 1.125; Interpretation of interaction (Candida auris; [5]): ADD (FICI values of >0.5–1.25 were categorized as additive (ADD)); MIC Combined, Antifungal (Candida auris; [5]): 0.25 µg/mL; MIC (Candida auris; [4]): 0.125 µg/mL; MIC (Candida auris; [5]): 0.25 µg/mL
CC[C@H](C)C[C@H](C)CCCCCCCCC(=O)N[C@H]1C[C@@H](O)[C@@H](NCCN)NC(=O)[C@@H]2[C@@H](O)CCN2C(=O)[C@H]([C@H](O)CCN)NC(=O)[C@H]([C@H](O)[C@@H](O)c2ccc(O)cc2)NC(=O)[C@@H]2C[C@@H](O)CN2C(=O)[C@H]([C@@H](C)O)NC1=O [Caspofungin]										MIC (Candida krusei; ATCC34135, C. krusei ATCC 34135): 0.5 µg/mL (≈ 0.457 µM); MIC (Candida krusei; C. krusei CAB 396420): 0.5 µg/mL (≈ 0.457 µM); MIC (Candida albicans; Candida albicans, ATCC10231): 0.125 µg/mL (≈ 0.114 µM); MIC (Candida albicans; Candida albicans, C. albicans NR-29448 (fluconazole-resistant), read-out: MIC): 0.25 µg/mL (≈ 0.229 µM); MIC (Candida glabrata): 0.125 µg/mL (≈ 0.114 µM); MIC (Candida glabrata; ATCC66032, C. glabrata ATCC 66032, read-out: MIC): 0.25 µg/mL (≈ 0.229 µM); MIC (Candida tropicalis): 0.125 µg/mL (≈ 0.114 µM); FICI (fractional inhibitory concentration index) (Candida auris; [4]): 1.250; Interpretation of interaction (Candida auris; [4]): ADD (FICI values of >0.5–1.25 were categorized as additive (ADD)); MIC Combined, Antifungal (Candida auris; [4]): 0.5 µg/mL; FICI (fractional inhibitory concentration index) (Candida auris; [5]): 1.125; Interpretation of interaction (Candida auris; [5]): ADD (FICI values of >0.5–1.25 were categorized as additive (ADD)); MIC Combined, Antifungal (Candida auris; [5]): 0.063 µg/mL; MIC (Candida auris; [4]): 0.5 µg/mL; MIC (Candida auris; [5]): 0.063 µg/mL; MIC (Candida parapsilosis; ATCC22019, C. parapsilosis ATCC 22019): 0.5 µg/mL (≈ 0.457 µM); MIC (Candida parapsilosis; C. parapsilosis CAB 502638): 0.5 µg/mL (≈ 0.457 µM)
Cc1nc(-c2ccc(-c3ccccc3)cc2)sc1-c1nnc(NCCN(C)C)o1 [Compound 8, N-{5-[2-((1,1’-Biphenyl)-4-yl)-4-methylthiazol-5-yl]-1,3,4-oxadiazol-2-yl}-N,N-dimethylethane-1,2-diamine]	16 (≈ 39.5 µM)	64 (≈ 158 µM)	16 (≈ 39.5 µM)	32 (≈ 78.9 µM)	16 (≈ 39.5 µM)					
Cc1nc(-c2ccc(-c3ccccc3)cc2)sc1-c1nnc(NCC(=N)N)o1 [Compound 9, 2-{[5-(2-((1,1’-biphenyl)-4-yl)-4-methylthiazol-5-yl)-1,3,4-oxadiazol-2-yl]amino} acetimidamide]	>64	>64	>64	>64	>64					
Cc1nc(-c2ccc(-c3ccccc3)cc2)sc1-c1nnc(NC2CCNC2)o1 (stereo not shown) [Compound 10, 5-{2-[(1,1’-Biphenyl)-4-yl]-4-methylthiazol-5-yl}-N-(pyrrolidin-3-yl)-1,3,4-oxadiazol-2-amine]						> 64	> 64	> 64	32 (≈ 79.3 µM)	MIC (Candida albicans; [7]): 8 µg/mL (≈ 19.8 µM); melting point: 116 to 117 °C
Cc1nc(-c2ccc(-c3ccccc3)cc2)sc1-c1nnc(N2CC[C@@H](N(C)C)C2)o1 [Compound 11, (R)-1-{5-[2-((1,1’-biphenyl)-4-yl)-4-methylthiazol-5-yl]-1,3,4-oxadiazol-2-yl}-N,N-dimethylpyrrolidin-3-amine]						> 64	> 64	> 64	> 64	MIC (Candida albicans; [7]): > 64 µg/mL; melting point: 165 to 167 °C
Cc1nc(-c2ccc(-c3ccccc3)cc2)sc1-c1nnc(N2CC[C@H](N(C)C)C2)o1 [Compound 12, (S)-1-{5-[2-((1,1’-biphenyl)-4-yl)-4-methylthiazol-5-yl]-1,3,4-oxadiazol-2-yl}-N,N-dimethylpyrrolidin-3-amine]						> 64	> 64	16 (≈ 37.1 µM)	32 (≈ 74.1 µM)	MIC (Candida albicans; [7]): 16 µg/mL (≈ 37.1 µM); melting point: 185 to 187 °C
Cc1nc(-c2ccc(-c3ccccc3)cc2)sc1-c1nnc(N2CCC[C@H]2C(N)=O)o1 [Compound 13, (S)-1-{5-[2-((1,1’-biphenyl)-4-yl)-4-methylthiazol-5-yl]-1,3,4-oxadiazol-2-yl}pyro-lidine-2-carboxamide]	>64	>64	>64	>64	>64					
Cc1nc(-c2ccc(-c3ccccc3)cc2)sc1-c1nnc(N2CCC[C@@H]2C(N)=O)o1 [Compound 14, (R)-1-{5-[2-((1,1’-biphenyl)-4-yl)-4-methylthiazol-5-yl]-1,3,4-oxadiazol-2-yl}pyro-lidine-2-carboxamide]	>64	>64	>64	>64	64 (≈ 148 µM)					
Cc1nc(-c2ccc(-c3ccccc3)cc2)sc1-c1nnc(N2CCCCC2CN)o1 (stereo not shown) [Compound 15, {1-[5-(2-((1,1’-Biphenyl)-4-yl)-4-methylthiazol-5-yl)-1,3,4-oxadiazol-2-yl]piperidin-2-yl}methanamine]						16 (≈ 37.1 µM)	> 64	16 (≈ 37.1 µM)	16 (≈ 37.1 µM)	MIC (Candida albicans; [7]): 16 µg/mL (≈ 37.1 µM); melting point: 225 to 227 °C
Cc1nc(-c2ccc(-c3ccccc3)cc2)sc1-c1nnc(N2CCC[C@H]2CO)o1 [Compound 20, (S)-{1-[5-(2-((1,1’-Biphenyl)-4-yl)-4-methylthiazol-5-yl)-1,3,4-oxadiazol-2-yl]pyro-lidin-2-yl}methanol]	>64	>64	>64	>64	64 (≈ 153 µM)					
Cc1nc(-c2ccc(-c3ccccc3)cc2)sc1-c1nnc(N2CCC[C@@H]2CO)o1 [Compound 21, (R)-{1-[5-(2-((1,1’-Biphenyl)-4-yl)-4-methylthiazol-5-yl)-1,3,4-oxadiazol-2-yl]pyro-lidin-2-yl}tmethanol]	>64	>64	>64	>64	>64					
CNC(C)C1CCC(N)C(OC2C(N)CC(N)C(OC3OCC(C)(O)C(NC)C3O)C2O)O1 (stereo not shown) [Gentamicin, reference compound]						≤ 0.5	≤ 0.5			
CCC(C)n1ncn(-c2ccc(N3CCN(c4ccc(OCC5COC(Cn6cncn6)(c6ccc(Cl)cc6Cl)O5)cc4)CC3)cc2)c1=O (stereo not shown) [Itraconazole, reference compound]										MIC (Aspergillus fumigatus; A. fumigatus NR 35303): 1 µg/mL (≈ 1.42 µM); MIC (Aspergillus fumigatus; A. fumigatus NR 35304): 1 µg/mL (≈ 1.42 µM)
CC(=O)NC[C@H]1CN(c2ccc(N3CCOCC3)c(F)c2)C(=O)O1 [Linezolid, reference compound]						8 (≈ 23.7 µM)	> 64	1 (≈ 2.96 µM)	1 (≈ 2.96 µM)	
CN[C@H](CC(C)C)C(=O)N[C@H]1C(=O)N[C@@H](CC(N)=O)C(=O)N[C@H]2C(=O)N[C@H]3C(=O)N[C@H](C(=O)N[C@H](C(=O)O)c4cc(O)cc(O)c4-c4cc3ccc4O)[C@H](O)c3ccc(c(Cl)c3)Oc3cc2cc(c3O[C@@H]2O[C@H](CO)[C@@H](O)[C@H](O)[C@H]2O[C@H]2C[C@](C)(N)[C@H](O)[C@H](C)O2)Oc2ccc(cc2Cl)[C@H]1O [Vancomycin, reference compound]										MIC (MRSA USA300; Staphylococcus aureus): 1 µg/mL (≈ 0.69 µM)
